A short description of the series: Stress stability of crystalline Form EM1 (moisture content, XRPD pattern). The series is classed as physicochemical. The procedure: In an embodiment, the open sample of Form EM1 is stable at 25° C. for at least 24 hours. In an embodiment, the open sample of Form EM1 is stable under heating in air tray drier at 60° C. for at least 24 hours. In an embodiment, the open sample of Form EM1 is stable at 40° C. and 75% RH condition for at least 24 hours. In an embodiment, the open sample of Form EM1 is stable at 25° C. and 85% RH for at least 24 hours. In an embodiment, the open sample of Form EM1 is stable under UV exposure for at least 16 hours.

Structures can show the parent of a compound that is named as a salt.

For the compound `COc1cc2c(cc1OC)CN(CCc1ccc(-n3nnc(-c4cc(OC)c(OC)cc4NC(=O)c4cc(=O)c5ccccc5o4)n3)cc1)CC2` [Form EM1, Encequidar mesylate], the “Moisture content (%)” value reads like this: (Initial) 6.95%; (Open 25° C., 24 hours) 5.94%; (Open 40° C./75% RH, 24 hours) 5.71%; (Open 60° C., 24 hours) 5.5%; (UV exposed, 24 hours) 6.26%. Also, the XRPD pattern result is, setting by setting: (Initial) “Form EM1”; (Open 25° C., 24 hours) “Form EM1”; (Open 40° C./75% RH, 24 hours) “Form EM1”; (Open 60° C., 24 hours) “Form EM1”; (UV exposed, 24 hours) “Form EM1”. Moreover, the Time stable result reads like this: (open sample at 25° C.) “at least 24 hours”; (open sample at 25° C. and 85% RH) “at least 24 hours”; (open sample at 40° C. and 75% RH) “at least 24 hours”; (open sample under UV exposure) “at least 16 hours”; (open sample, heating in air tray drier at 60° C.) “at least 24 hours”. Also, where the note is “stress conditions for 24 hours”, the “Stability under tabulated stress conditions” value is recorded as “found to be stable”. Besides, under “stressed samples, FIG. 5”, the “Change in weight or moisture content and X-ray diffraction patterns” value is “No significant change”.

For the origin of these results see patent US20220169637A1, “SOLID FORMS OF ENCEQUIDAR MESYLATE AND PROCESSES THEREOF” (DR. REDDY'S LABORATORIES LIMITED, priority 2019, published 2022).
